The text below walks through data of patent US20130267476A1, “Pesticidal Active Mixtures Comprising Pyrazole Compounds” (BASF SE, priority 2010, published 2013).

“And” between values parts separate entries of the source, which are not always exact repeats. Equal entries are not always repeated. Where two headings read alike, the source gives them in different places.

The test system of assay [1] is green peach aphid (Myzus persicae). The assay is described as follows: Test 2—Control of Green Peach Aphid (artificial diet under membrane, systemic). In kind it is in vivo. Conditions: 3 days. The source says: Test 2—Control of Green Peach Aphid
For evaluating control of green peach aphid (Myzus persicae) through systemic means the test unit consisted of 96-well-microtiter plates containing liquid artificial diet under an artificial membrane.
The compounds or mixtures were formulated using a solution containing 75% water and 25% DMSO. Different concentrations of formulated compounds or mixtures were pipetted into the aphid diet, using a custom built pipetter, at two replications.
(§1) For experimental mixtures in these tests identical volumes of both mixing partners at the desired concentrations respectively, were mixed together.
After application, 5-8 adult aphids were placed on the artificial membrane inside the microtiter plate wells. The aphids were then allowed to suck on the treated aphid diet and incubated at 23±1° C., 50±5% RH for 3 days. Aphid mortality and fecundity was then visually assessed.

Assay [2] deals with vetch aphid (Megoura viciae). The assay is described as follows: Test 1—Control of Vetch Aphid (leaf disks, 24-well microtiter plates). The settings on record: 5 days. In kind it is in vivo. As for the experimental part: Test 1—Control of Vetch Aphid
For evaluating control of vetch aphid (Megoura viciae) through contact or systemic means the test unit consisted of 24-well-microtiter plates containing broad bean leaf disks.
The compounds or mixtures were formulated using a solution containing 75% water and 25% Dimethylsulfoxide (DMSO). Different concentrations of formulated compounds or mixtures were sprayed onto the leaf disks at 2.5 μl, using a custom built micro atomizer, at two replications.
as §1
After application, the leaf disks were air-dried and 5-8 adult aphids placed on the leaf disks inside the microtiter plate wells. The aphids were then allowed to suck on the treated leaf disks and incubated at 23±1° C., 50±5% relative humidity (RH) for 5 days. Aphid mortality and fecundity was then visually assessed.

For assay [3], the system named is boll weevil (Anthonomus grandis). In words: Test 3—Control of Boll Weevil (insect diet with eggs). It is filed as in vivo. Conditions: 5 days. As for the experimental part: Test 3—Control of Boll Weevil
For evaluating control of boll weevil (Anthonomus grandis) the test unit consisted of 24-well-microtiter plates containing an insect diet and 20-30 A. grandis eggs.
The compounds or mixtures were formulated using a solution containing 75% water and 25% DMSO. Different concentrations of formulated compounds or mixtures were sprayed onto the insect diet at 20 μl, using a custom built micro atomizer, at two replications.
as §1
After application, microtiter plates were incubated at 23±1° C., 50±5% RH for 5 days. Egg and larval mortality was then visually assessed.

In assay [4] the test system is Mediterranean fruitfly (Ceratitis capitata). The assay is described as follows: Test 4—Control of Mediterranean Fruitfly (insect diet with eggs). It is filed as in vivo. The settings on record: 5 days. As for the experimental part: Test 4—Control of Mediterranean Fruitfly
For evaluating control of Mediterranean fruitfly (Ceratitis capitata) the test unit consisted of 96-well-microtiter plates containing an insect diet and 50-80 C. capitata eggs.
The compounds or mixtures were formulated using a solution containing 75% water and 25% DMSO. Different concentrations of formulated compounds or mixtures were sprayed onto the insect diet at 5 μl, using a custom built micro atomizer, at two replications.
as §1
(§2) After application, microtiter plates were incubated at 28±1° C., 80±5% RH for 5 days. Egg and larval mortality was then visually assessed.

In a further assay the test system is Alternaria solani. In words: Test 8—Activity Against Early Blight on Tomatoes Caused by Alternaria solani (microtest). It is filed as cell-based. The settings on record: 7 days after inoculation. The source says:
(§3) The active compounds were formulated separately as a stock solution having a concentration of 10000 ppm in dimethyl sulfoxide.
(§4) The measured parameters were compared to the growth of the active compound-free control variant (100%) and the fungus-free and active compound-free blank value to determine the relative growth in % of the pathogens in the respective active compounds. These percentages were converted into efficacies.
Test 8—Activity Against Early Blight on Tomatoes Caused by Alternaria solani
The stock solutions were mixed according to the ratio, pipetted onto a micro titer plate (MTP) and diluted with water to the stated concentrations. A spore suspension of Alternaria solani in an aqueous biomalt solution was then added. The plates were placed in a water vapor-saturated chamber at a temperature of 18° C. Using an absorption photometer, the MTPs were measured at 405 nm 7 days after the inoculation.

The subject of another assay is Pyricularia oryzae. It is filed as cell-based. Conditions: 7 days after inoculation.
Another assay deals with Botrytis cinerea. The assay is described as follows: Test 6—Activity Against the Grey Mold Botrytis cinerea in the Microtiterplate Test. It is filed as cell-based. The settings on record: 7 days after inoculation.
Description: as §3, §4
Test 6—Activity Against the Grey Mold Botrytis cinerea in the Microtiterplate Test
The stock solutions were mixed according to the ratio, pipetted onto a micro titer plate (MTP) and diluted with water to the stated concentrations. A spore suspension of Botrci cinerea in an aqueous biomalt solution was then added. The plates were placed in a water vapor-saturated chamber at a temperature of 18° C. Using an absorption photometer, the MTPs were measured at 405 nm 7 days after the inoculation.

The test system of the next assay is Septoria tritici. In words: Test 9—Activity Against Leaf Blotch on Wheat Caused by Septoria tritici (microtest). It is filed as cell-based. Conditions: 7 days after inoculation.
Description: as §3, §4
Test 9—Activity Against Leaf Blotch on Wheat Caused by Septoria tritici
The stock solutions were mixed according to the ratio, pipetted onto a micro titer plate (MTP) and diluted with water to the stated concentrations. A spore suspension of SepCoria triticiin an aqueous biomalt solution was then added. The plates were placed in a water vapor-saturated chamber at a temperature of 18° C. Using an absorption photometer, the MTPs were measured at 405 nm 7 days after the inoculation.

The subject of assay [5] is tobacco budworm (Heliothis virescens). The assay is described as follows: Test 5—Control of Tobacco Budworm (insect diet with eggs). It is filed as in vivo. Conditions: 5 days. On the procedure:
Test 5—Control of Tobacco Budworm
For evaluating control of tobacco budworm (Heliothis virescens) the test unit consisted of 96-well-microtiter plates containing an insect diet and 15-25 H. virescens eggs.
The compounds or mixtures were formulated using a solution containing 75% water and 25% DMSO. Different concentrations of formulated compounds or mixtures were sprayed onto the insect diet at 10 μl, using a custom built micro atomizer, at two replications.
as §1, §2

[6] abbreviates: 0 + 0.4 ppm (second compound alone).
The mark [7] stands for this setting: 0 + 10 ppm (second compound alone).
Setting [8] is: 0 + 2 ppm (second compound alone).
The mark [9] stands for this setting: 0 + 20 ppm (second compound alone).
The mark [10] stands for this setting: 2 + 0 ppm (first compound alone).
Setting [11] is: 10 + 0 ppm (first compound alone).
Setting [12] is: 50 + 0 ppm (first compound alone).
Setting [13] is: 0 + 0.08 ppm (second compound alone).

Take `C[C@]1(COC(=O)CC2CC2)[C@@H]2C[C@H](OC(=O)CC3CC3)[C@@]3(C)Oc4cc(-c5cccnc5)oc(=O)c4[C@H](O)[C@@H]3[C@@]2(C)CC[C@@H]1OC(=O)CC1CC1` [A27.2]: the “Average Control %” value in assay [1] (0 + 0.0008 ppm (second compound alone)) came out at 0%; in [1] (0 + 0.004 ppm (second compound alone)), 50%.

As to `CNC(=O)c1cc(Cl)cc(C)c1NC(=O)c1cc(Br)nn1-c1ncccc1Cl` [Chloranthraniliprole, chloranthraniliprole], the “Average Control %” value in assay [1] (setting [6]) is 0%; in [2] (setting [7]) it was 25%; in assay [3] (setting [6]), 25%; in assay [4] (setting [7]), 0%.

Consider `N#Cc1nn(-c2c(Cl)cc(C(F)(F)F)cc2Cl)c(N)c1[S+]([O-])C(F)(F)F` (stereo not shown) [Fipronil, fipronil], for which the “Average Control %” value in [1] (setting [8]) and in assay [2] (setting [8]) was 0% throughout.

`N#CCNC(=O)c1cnccc1C(F)(F)F` [Flonicamid, flonicamid]: the “Average Control %” value was 0% in assay [1] (0 + 4 ppm (second compound alone)), 25% in assay [2] (setting [9]) and 0% in assay [3] (setting [9]).

On to `CN(C(=O)c1cnn(C)c1C(F)F)c1cccnc1` [I-17], for which the Observed efficacy % in the assay with Alternaria solani (63 ppm) was determined as 4%; in the assay with Pyricularia oryzae (63 ppm), 0%. In addition, the “Average Control %” value in [2] (setting [10]) was determined as 0%.

On to `Cc1c(C(=O)N(C)c2ccnnc2)cnn1C(C)C` [I-52], for which the Observed efficacy % with Botrytis cinerea (63 ppm) is listed as 4%; in the assay with Alternaria solani (63 ppm), 0%; in the assay with Septoria tritici (4 ppm) it was 18%; in the assay with Septoria tritici (16 ppm), 18%; in the assay on Pyricularia oryzae (63 ppm), 0%. For the same molecule, the “Average Control %” value in [1] (0.08 + 0 ppm (first compound alone)) is 0%; in assay [1] (setting [10]), 25% and 50%; in [2] (setting [11]) it was 50% and 25%; in assay [3] (setting [10]) it was 0%; in [3] (setting [11]), 0%; in [3] (setting [12]), 0%. Besides, the “Average Control %” value in [4] (setting [12]) is recorded as 0%.

As for `Cc1c(C(=O)N(C)c2ccnnc2)cnn1CC(F)(F)F` [I-76], the “Average Control %” value turned out to be 0% in assay [1] (0.4 + 0 ppm (first compound alone)); 0% in assay [1] (setting [10]); 50% in assay [1] (setting [12]); 0% in assay [2] (setting [10]); 0% in assay [2] (setting [11]); 0% in assay [2] (setting [12]). For the same molecule, the “Average Control %” value in assay [5] (setting [12]) and in assay [4] (setting [11]) was 0% in each case. This molecule also returned an Observed efficacy % in the assay with Septoria tritici (1 ppm) of 11%.

`O=[N+]([O-])NC1=NCCN1Cc1ccc(Cl)nc1` [Imidacloprid, imidacloprid]: the “Average Control %” value was found to be 0% in [2] (0 + 0.016 ppm (second compound alone)), 0% in [2] (setting [13]), 25% in [2] (setting [6]) and 0% in assay [4] (setting [7]).

`OC(Cc1ccccc1Cl)(Cn1nc[nH]c1=S)C1(Cl)CC1` (stereo not shown) [Prothioconazole, 2-[2-(1-chlorocyclopropyl)-3-(2-chlorophenyl)-2-hydroxypropyl]-2,4-dihydro[1,2,4]triazole-3-thione]: the figures for the Observed efficacy % with Botrytis cinerea (0.25 ppm), with Alternaria solani (0.25 ppm) and with Pyricularia oryzae (0.25 ppm) were 45%, 22% and 15%, respectively.

Consider `CC1=NNC(=O)N(/N=C/c2cccnc2)C1` [Pymetrozine, pymetrozine], for which the “Average Control %” value in assay [5] (0 + 400 ppm (second compound alone)) is recorded as 50%.

The molecule `COC(=O)N(OC)c1ccccc1COc1ccn(-c2ccc(Cl)cc2)n1` [Pyraclostrobin, methyl N-{2-[1-(4-chlorophenyl)-1H-pyrazol-3-yloxymethyl]phenyl}(N-methoxy)carbamate] yielded an Observed efficacy % with Septoria tritici (0.004 ppm) of 46%.

For `CCOC(=O)OC1=C(c2cc(C)ccc2C)C(=O)N[C@]12CC[C@@H](OC)CC2` [Spirotetramat, spirotetramat], the “Average Control %” value in [1] (0 + 3.2 ppm (second compound alone)) and in assay [1] (0 + 16 ppm (second compound alone)) was 0% each time.

Regarding `CC(c1ccc(C(F)(F)F)nc1)S(C)(=O)=NC#N` (stereo not shown) [Sulfoxaflor, sulfoxaflor], the “Average Control %” value in assay [1] (0 + 0.0064 ppm (second compound alone)) is recorded as 0%.

`CC(C)(C)C(O)(CCc1ccc(Cl)cc1)Cn1cncn1` (stereo not shown) [Tebuconazole, 1-(4-chlorophenyl)-4,4-dimethyl-3-[1,2,4]triazol-1-ylmethylpentan-3-ol] showed an Observed efficacy % in the assay with Septoria tritici (0.25 ppm) of 57%.

Regarding `CN1COCN(Cc2cnc(Cl)s2)/C1=N\[N+](=O)[O-]` [Thiamethoxam, thiamethoxam], the “Average Control %” value in assay [2] (setting [8]) and in [4] (setting [7]) was 25% throughout.

On to `CON=C(C(=O)OC)c1ccccc1CON=C(C)c1cccc(C(F)(F)F)c1` [Trifloxystrobin, methyl (E)-methoxyimino-{(E)-α-[1-(α,α,α-trifluoro-mtolyl)ethylideneaminooxy]-o-tolyl}acetate], for which the Observed efficacy % with Septoria tritici (0.016 ppm) came out at 71%.

With `CC1(C)C(C=C(Cl)Cl)C1C(=O)OC(C#N)c1cccc(Oc2ccccc2)c1` (stereo not drawn) [α-cypermethrin, alpha-cypermethrin], the “Average Control %” value was 25% in assay [2] (setting [6]), 0% in [2] (setting [8]) and 25% in assay [3] (setting [6]).

Regarding abamectin, the “Average Control %” value in assay [2] (setting [13]) is 25%.
